In patent publication US20250179061A1 (SIRONAX LTD., priority 2022, published 2025) one finds IC50 data, which are given here for twelve molecules.

This experiment relates to HT-29 cells. The experiment is described as follows: HT-29 necroptosis cell viability assay (TNF-α/SMAC mimetic/zVAD-FMK, CellTiter-Glo). Format: cell-based. The conditions noted are these: Homo sapiens. Put shortly: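 Necroptosis was triggered by TNF-α (10 ng/ml), SMAC mimetic (6 μM) and zVAD-FMK (10 μM) in serum-free medium during 20 h compound exposure (10 concentrations, threefold steps) of HT-29 cells. IC50 from duplicate dose-responses uses CellTiter-Glo ATP luminescence as viability read-out.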
(In general: ATP-based viability assays read luminescence as a measure of living cells.)

The mark [1] stands for this setting: HT-29, HT-29 necroptosis cell viability, IC50 class symbols, read-out: Activity.
The mark [2] stands for this setting: HT-29, HT-29 necroptosis cell viability assay, class symbols for IC50, read-out: Activity.
The mark [3] stands for this setting: HT-29 cells stimulated with TNF-α (10 ng/ml), SMAC mimetic (6 μM) and zVAD-FMK (10 μM), 20 hours, CellTiter-Glo ATP luminescence, geometric mean IC50 from 10 points, read-out: Activity.

Where a name gives a salt, the structure may show the parent alone. Read-outs that look alike come from different tables or passages of the source.

Regarding `O=c1n(-c2ccc(Oc3ccccc3[N+](=O)[O-])cc2)nc(Cl)n1Cc1ccccc1` [Example 430, 4-benzyl-5-chloro-2-(4-(2-nitrophenoxy)phenyl)-2,4-dihydro-3H-1,2,4-triazol-3-one], under setting [1], the IC50 was in the range of 100 to 1000 nM.
On to `C[C@H](O)C1CN(c2cc(Oc3ccc(-n4ncn(Cc5c(F)cccc5F)c4=O)cc3F)c(F)cn2)C1` [Example 556, (S)-4-(2,6-difluorobenzyl)-2-(3-fluoro-4-((5-fluoro-2-(3-(1-hydroxyethyl)azetidin-1-yl)pyridin-4-yl)oxy)phenyl)-2,4-dihydro-3H-1,2,4-triazol-3-one], for which, under setting [2], the IC50 was below 100 nM.
On to `O=c1n(-c2ccc(Oc3cccnc3)cc2)nc(Cl)n1Cc1ccccc1` [Example 427, 4-benzyl-5-chloro-2-(4-(pyridin-3-yloxy)phenyl)-2,4-dihydro-3H-1,2,4-triazol-3-one], for which the IC50 under setting [1] is below 100 nM.
Same read-out and setting: to `N#CC12CC(Nc3cc(Oc4ccc(-n5ncn(Cc6c(F)cccc6F)c5=O)cc4)c(Cl)cn3)(C1)C2` [Example 325, 3-((5-chloro-4-(4-(4-(2,6-difluorobenzyl)-5-oxo-4,5-dihydro-1H-1,2,4-triazol-1-yl)phenoxy)pyridin-2-yl)amino)bicyclo[1.1.1]pentane-1-carbonitrile] belongs below 100 nM; to `O=c1n(Cc2c(F)cccc2F)cnn1-c1ccc(Oc2ccnc(OCC3CC3)c2)cc1` [Example 347, 2-(4-((2-(cyclopropylmethoxy)pyridin-4-yl)oxy)phenyl)-4-(2,6-difluorobenzyl)-2,4-dihydro-3H-1,2,4-triazol-3-one], below 100 nM.
In the case of `Cc1nccn1Cc1ccc(-n2ncn(Cc3c(F)cccc3F)c2=O)cc1` [Example 187, 4-(2,6-difluorobenzyl)-2-(4-((2-methyl-1H-imidazol-1-yl)methyl)phenyl)-2,4-dihydro-3H-1,2,4-triazol-3-one], the IC50 under setting [2] is 100 to 1000 nM.
Consider `O=c1n(Cc2c(F)cccc2F)cnn1-c1ccc(Oc2c(Cl)ccnc2N2CC3(CCOCC3)C2)cc1` [Example 673, 2-(4-((4-chloro-2-(7-oxa-2-azaspiro[3.5]nonan-2-yl)pyridin-3-yl)oxy)phenyl)-4-(2,6-difluorobenzyl)-2,4-dihydro-3H-1,2,4-triazol-3-one], for which the IC50 (HT-29, HT-29 cells, necroptosis induced by TNF-α/SMAC mimetic/zVAD-FMK, CellTiter-Glo, read-out: Activity (IC50 class)) was above 10000 nM.
As to `COC(=O)c1cn(Cc2ccc(-n3ncn(Cc4c(F)cccc4F)c3=O)cc2F)c(C)n1` [Example 210, methyl 1-(4-(4-(2,6-difluorobenzyl)-5-oxo-4,5-dihydro-1H-1,2,4-triazol-1-yl)-2-fluorobenzyl)-2-methyl-1H-imidazole-4-carboxylate], the IC50 under setting [2] was in the range of 100 to 1000 nM.
Turning to `Cc1nc(C2CC(C#N)C2)sc1Oc1ccc(-n2ncn(Cc3c(F)cccc3F)c2=O)cc1F` (stereo not drawn) [Example 40, 3-(5-(4-(4-(2,6-difluorobenzyl)-5-oxo-4,5-dihydro-1H-1,2,4-triazol-1-yl)-2-fluorophenoxy)-4-methylthiazol-2-yl)cyclobutane-1-carbonitrile], under setting [3], the IC50 was below 100 nM.
`COC1(C#N)CN(c2cc(Oc3ccc(-n4ncn(Cc5c(F)cccc5F)c4=O)cc3F)c(Cl)cn2)C1` [Example 231, 1-(5-chloro-4-(4-(4-(2,6-difluorobenzyl)-5-oxo-4,5-dihydro-1H-1,2,4-triazol-1-yl)-2-fluorophenoxy)pyridin-2-yl)-3-methoxyazetidine-3-carbonitrile]: the IC50 under setting [1] was below 100 nM.
The same measure, in the same setting: next, `O=c1n(Cc2c(F)cccc2F)cnn1-c1ccc(Oc2ccnnc2)cc1` [Example 431, 4-(2,6-difluorobenzyl)-2-(4-(pyridazin-4-yloxy)phenyl)-2,4-dihydro-3H-1,2,4-triazol-3-one]: 1000 to 10000 nM.
In the case of `Cc1nc(N2CCC(N)(C(F)(F)F)C2)sc1Cc1ccc(-n2ncn(Cc3c(F)cccc3F)c2=O)cc1F` (stereo not drawn) [Example 60, 2-(4-((2-(3-amino-3-(trifluoromethyl)pyrrolidin-1-yl)-4-methylthiazol-5-yl)methyl)-3-fluorophenyl)-4-(2,6-difluorobenzyl)-2,4-dihydro-3H-1,2,4-triazol-3-one formate], the IC50 under setting [3] was below 100 nM.
